The results in this text go back to US11427544B2, “Histone deacetylase 6 inhibitors and use thereof” (TAIPEI MEDICAL UNIVERSITY, priority 2016, dated 2022).

Data set [1] in a line: Safety in ICR mice, 7-day intraperitoneal dosing. It is filed as in vivo. To be noted: 50, 100, and 200 mg/kg intraperitoneally once a day for 7 days, monitored another 7 days. The method, then: In addition, both Compounds 12 and 28 were studied to evaluate their safety in animals.
[…]. The animals were dosed intraperitoneally once a day for 7 days and then monitored for another 7 days. The animals were weighed daily for 1 week and then twice weekly.

The subject of data set [2] is acetyl-a-tubuline expression in RPMI8226, U266, and NCI-H929. The data set is described as follows: Acetyl-a-tubuline expression in multiple myeloma cell lines (immunoblotting). It is filed as cell-based, human. The method, then: A study was conducted to evaluate the activity of a compound of Formula (I) in increasing acetyl-a-tubuline expression in human multiple myeloma cell lines (RPMI8226, U266, and NCI-H929).
Cells (1×10^6) were incubated for 10 minutes at 4° C. in a lysis buffer solution in a culture vessel, and then scraped off the culture vessel, incubated on ice for another 10 minutes, and centrifuged at 17,000×g for 30 minutes at 4° C. Protein samples (80 μg) were electrophoresed on SDS gels and transferred onto a nitrocellulose membrane, which was blocked by incubation with 5% fat-free milk in phosphate-buffered saline (PBS) for 30 minutes at room temperature. Immunoblotting was performed by overnight incubation at 4° C. with primary antibodies in PBS, followed by incubation for 1 hour at room temperature with horseradish peroxidase (HRP)-conjugated secondary antibodies, then bound antibodies were measured using enhanced chemiluminescence (ECL) reagent (Advansta Corp., Menlo Park, Calif., USA) and exposure to photographic film.
The study was performed according to the protocol reported in Yang et al., Journal of Molecular Medicine, 2014, November; 92(11):1147-1158.

A further data set deals with T1, HDAC1 (Homo sapiens, UniProt Q13547).
T1 construct: purchased BPS Bioscience Corp
Kind of data set: Fluorogenic HDAC assay, HDAC1. The format is biochemical. The note with it: recombinant HDAC1; read-out: Enzyme IC50 HDAC1. An excerpt: Of note, there are eighteen human HDACs. Eleven of them, designated as HDAC1-11, are zinc-dependent. Seven of them, designated as Sirt1-7, are NAD+-dependent.
Fluorogenic HDAC assay kits were used to assess the ability of HDAC inhibitors to inhibit deacetylation of lysine residues on a substrate by recombinant proteins HDAC1, 3, 4, 5, 6, 7, 8, 9 and Sirt1 according to the manufacturer's instructions (BPS Bioscience Corp., San Diego, Calif., USA).

The target in another data set is T2, HDAC6-dynein binding (Homo sapiens, UniProt Q9UBN7).
T2 construct: endogenous in cells
The data set is described as follows: HDAC6-dynein binding (immunoprecipitation, immunoblotting). The note with it: dose-dependent. It is filed as cell-based. The method, then:
A study was conducted to evaluate the activity of a compound of Formula (I) in inhibiting HDAC6-dynein binding and inducing accumulation of polyubiquited proteins.
Cell lysates were immunoprecipitated overnight at 4° C. with 1 μg of dynein antibody and A/G-agarose beads. The precipitated beads were washed three times with 1 mL of an ice-cold cell lysis buffer solution. The resulting immune complex was resolved by 10% SDS-PAGE gel electrophoresis, followed by immunoblotting assay using anti-HDAC6 Ab.
The study was performed according to the protocol reported in Chen et al., Journal of Immunology, 2008, 181(12):8441-8449.

A further data set has as its system MDA-MB-231 Breast. Kind of data set: Tumor growth inhibition, MDA-MB-231 xenograft. To be noted: qd, intraperitoneal. The format is in vivo, athymic nude mice. The method, then:
(§1) An in vivo study was conducted to evaluate the efficacy of compounds of Formula (I) in suppressing tumor growth in multiple human cancer types.
(§2) Eight-week-old athymic nude mice were group-housed under conditions of constant photoperiod (12 h light/12 h dark at 21-23° C. and 60-85% humidity) with ad libitum access to sterilized food and water. All animal experiments followed ethical standards, and protocols were reviewed and approved by the Animal Use and Management Committee of National Taiwan University. Each mouse was inoculated subcutaneously with 1×10^6˜1×10^7 human cancer cells in a total volume of 0.1 mL serum-free medium containing 50% Matrigel (BD Biosciences). As tumors became established (˜100 mm^3), mice were randomized to various groups to be treated with pre-determined materials (n=6-8/group): (i) control group: 0.5% DMSO/0.5% Cremophor/90% D5W and (ii) treatment groups: Compounds 12 and 28 at pre-determined doses daily. Mice received treatment by intraperitoneal injection for the duration of the study. Tumors were measured weekly using calipers. Tumor size, in mm^3, was calculated according to the formula: Tumor volume=(w^2×l)/2, where w and 1 respectively represent the width and length (both in mm) of the tumor.

The subject of data set [3] is RPMI8226, U266, and NCI-H929 multiple myeloma cell lines. Kind of data set: Apoptosis in multiple myeloma cells, combined with bortezomib (propidium iodide, FACScan). It is filed as cell-based, human. To be noted: 24 hours. The method, then: A study was conducted to evaluate the effect of a compound of Formula (I) combined with bortezomib in inducing apoptosis in multiple myeloma cells.
To detect cell cycle progression, cells were incubated with or without the indicated agent for 24 hours, washed twice with ice-cold PBS, collected by centrifugation, and fixed in 70% (v/v) ethanol for 2 hours at −20° C. They were subsequently incubated for 30 minutes at room temperature with 0.2 mL of deoxyribonucleic acid (DNA) extraction buffer (0.2 M Na2HPO4 and 0.1 M citric acid buffer, pH 7.8), re-suspended in 1 mL of propidium iodide staining buffer (0.1% Triton X-100, 100 μg/mL of RNase A, and 80 μg/mL of propidium iodide in PBS), incubated at 37° C. for 30 minutes in darkness, sorted by FACScan, and analyzed using CellQuest software (BD Biosciences).
(§3) The study was performed according to the protocol reported in Hsieh et al., Cell Death and Disease, 2014, April; 5:e1166.

The subject of data set [4] is PC-3 prostate cancer cell line. Kind of data set: Antiproliferative activity, PC-3. It is filed as cell-based, human. The note with it: Homo sapiens. The method, then:
A study was conducted to evaluate the inhibitory activity of compounds of Formula (I) in inhibiting HDAC6, antiproliferative activity of test compounds in suppressing cancer cell growth, and selectivity of inhibiting HDAC6 over other HDAC isoforms.
as §3
Shown in Table 2 below are antiproliferative activities (measured by their half maximal concentration for inhibiting cell growth, i.e., GI50) of the test compounds against various cancer cell lines.

The test system of data set [5] is RPMI-8226 Multiple myeloma. The data set is described as follows: Tumor growth inhibition, RPMI-8226 xenograft. It is filed as in vivo, athymic nude mice. The note with it: 50 mg/kg, qd. The method, then:
as §1, §2

Each structure is given as a SMILES string.

T2 sequence (Q9UBN7 whole entry): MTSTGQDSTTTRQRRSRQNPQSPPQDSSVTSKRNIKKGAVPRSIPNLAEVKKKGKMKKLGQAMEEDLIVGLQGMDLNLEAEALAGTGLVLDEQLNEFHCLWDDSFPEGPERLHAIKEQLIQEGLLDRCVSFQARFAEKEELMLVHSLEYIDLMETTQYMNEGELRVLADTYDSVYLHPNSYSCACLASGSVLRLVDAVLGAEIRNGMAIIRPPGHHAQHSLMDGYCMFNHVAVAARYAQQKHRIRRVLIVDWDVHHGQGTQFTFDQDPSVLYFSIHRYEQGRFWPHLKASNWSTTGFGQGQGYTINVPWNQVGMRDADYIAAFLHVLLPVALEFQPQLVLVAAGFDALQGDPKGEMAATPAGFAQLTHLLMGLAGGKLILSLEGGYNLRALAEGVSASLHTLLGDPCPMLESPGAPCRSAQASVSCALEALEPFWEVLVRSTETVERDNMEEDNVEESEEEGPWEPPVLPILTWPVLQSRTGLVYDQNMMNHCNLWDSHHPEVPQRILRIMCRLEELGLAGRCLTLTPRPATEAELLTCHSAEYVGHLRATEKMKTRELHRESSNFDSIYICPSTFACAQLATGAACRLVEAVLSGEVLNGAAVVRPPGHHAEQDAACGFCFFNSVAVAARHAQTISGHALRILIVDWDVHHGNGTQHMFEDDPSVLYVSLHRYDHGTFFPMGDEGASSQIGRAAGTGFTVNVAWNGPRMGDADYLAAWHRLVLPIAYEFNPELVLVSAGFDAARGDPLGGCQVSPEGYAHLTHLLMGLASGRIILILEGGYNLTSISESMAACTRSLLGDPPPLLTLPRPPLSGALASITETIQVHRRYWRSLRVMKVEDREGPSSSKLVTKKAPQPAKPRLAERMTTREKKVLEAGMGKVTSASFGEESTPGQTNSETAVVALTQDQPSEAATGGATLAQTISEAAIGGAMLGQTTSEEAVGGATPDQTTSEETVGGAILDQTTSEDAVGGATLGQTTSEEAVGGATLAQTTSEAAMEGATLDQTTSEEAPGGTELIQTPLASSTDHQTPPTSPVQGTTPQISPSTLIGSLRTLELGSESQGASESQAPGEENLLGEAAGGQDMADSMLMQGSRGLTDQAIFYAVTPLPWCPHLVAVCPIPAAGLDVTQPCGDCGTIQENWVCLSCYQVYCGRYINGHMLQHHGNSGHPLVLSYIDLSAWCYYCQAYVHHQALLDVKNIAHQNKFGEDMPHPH
T1 sequence (Q13547 whole entry): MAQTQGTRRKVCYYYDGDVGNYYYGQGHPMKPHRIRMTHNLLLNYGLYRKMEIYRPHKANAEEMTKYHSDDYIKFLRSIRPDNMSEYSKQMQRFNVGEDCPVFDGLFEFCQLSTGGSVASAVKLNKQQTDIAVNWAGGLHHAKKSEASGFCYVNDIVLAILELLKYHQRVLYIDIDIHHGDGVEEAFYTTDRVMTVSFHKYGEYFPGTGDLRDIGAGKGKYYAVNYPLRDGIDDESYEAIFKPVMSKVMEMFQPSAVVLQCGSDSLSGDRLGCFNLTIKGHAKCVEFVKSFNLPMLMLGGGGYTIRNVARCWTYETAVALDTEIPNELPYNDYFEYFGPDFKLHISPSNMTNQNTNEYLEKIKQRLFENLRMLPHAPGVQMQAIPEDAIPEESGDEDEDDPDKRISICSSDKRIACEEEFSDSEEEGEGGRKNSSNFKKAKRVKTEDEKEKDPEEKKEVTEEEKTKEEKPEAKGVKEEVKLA

For `O=C(NO)c1ccc(CNc2cccc3cccnc23)cc1` [Compound 28, N-hydroxy-4-((quinolin-8-ylamino)methyl)benzamide], the tolerability entry in data set [1] is given as “well tolerated”. Further, the acetyl-a-tubuline expression result in data set [2] is reported as “increasing acetyl-a-tubuline expression in a dose-dependent manner”. At HDAC1, the IC50 was 6.7 µM. Besides, the HDAC6-dynein binding result on HDAC6-dynein binding was “inhibited HDAC6-dynein binding”. Further, the “% TGI” value in the data set on MDA-MB-231 Breast (25 mg/kg) was found to be 38.6%; with MDA-MB-231 Breast (50 mg/kg) it was 56.4%; in data set [5] (intraperitoneal) it was 80.0%. Also, the induction of apoptosis entry in data set [3] is “synergistically induced apoptosis”. This compound yielded a GI50 in data set [4] of 3.4 ± 0.13 µM. In addition, the “Best Response” value in data set [5] (CR: complete regression) was determined as 2 × CR^a.
